For the assay, the target named is T1, human mAChR M1 (Homo sapiens, UniProt P11229).
T1 construct: host or cells: CHO-K1
T1 sequence (P11229 1-460): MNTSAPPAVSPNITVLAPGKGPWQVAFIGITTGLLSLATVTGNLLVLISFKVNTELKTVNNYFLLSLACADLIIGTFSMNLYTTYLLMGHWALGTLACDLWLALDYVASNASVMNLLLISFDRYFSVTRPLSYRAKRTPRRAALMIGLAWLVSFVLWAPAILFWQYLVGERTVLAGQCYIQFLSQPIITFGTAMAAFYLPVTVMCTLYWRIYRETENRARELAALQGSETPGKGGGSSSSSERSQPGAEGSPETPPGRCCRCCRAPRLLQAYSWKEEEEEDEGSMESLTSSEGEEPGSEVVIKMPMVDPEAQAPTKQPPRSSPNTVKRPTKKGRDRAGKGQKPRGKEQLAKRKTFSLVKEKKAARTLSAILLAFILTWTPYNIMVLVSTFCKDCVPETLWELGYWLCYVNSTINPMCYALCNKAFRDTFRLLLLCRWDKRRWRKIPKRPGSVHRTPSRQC
Briefly: mAChR M1 cell-based functional assay (calcium mobilization, Fluo-4, FDSS). Conditions: CHO-K1 cells stably expressing hM1; for Emax: EC20 acetylcholine response, read-out: Human M1 Emax; for EC50: positive allosteric modulator activity as increase in the EC20 acetylcholine response. In a few lines:
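CHO-K1 cells stably expressing muscarinic receptor, loaded with Fluo-4; 11-point 1:3 compound series added and calcium flux read over 300 s at 1 Hz. Agonism from direct calcium rise, PAM activity as potentiation of EC20 acetylcholine, antagonism as decrease of EC80 acetylcholine; four-parameter logistic fits.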

Usually Emax stands for the greatest response seen or fitted, relative to the assay's reference. The term EC50 denotes the concentration giving half of the maximal effect. With `Cn1cc(-c2ccc(Cc3cc(C(=O)N[C@@H]4CCOC4)nc4sccc34)cn2)cn1` [Compound 121, 4-[[6-(1-methylpyrazol-4-yl)-3-pyridyl]methyl]-N-[(3R)-tetrahydrofuran-3-yl]thieno[2,3-b]pyridine-6-carboxamide], the Emax came out at 58.9% and the EC50 came out at 0.55 µM.

For `Cn1cc(-c2ccc(Cc3cc(C(=O)NCC4CCOC4)nc4sccc34)cn2)cn1` (stereo not shown) [Compound 122, 4-[[6-(1-methylpyrazol-4-yl)-3-pyridyl]methyl]-N-(tetrahydrofuran-3-ylmethyl)thieno[2,3-b]pyridine-6-carboxamide], the Emax is 57.5% and the EC50 was 0.7 µM.

As for `Cn1cc(-c2ccc(Cc3cc(C(=O)NC4CC5(COC5)C4)nc4sccc34)cn2)cn1` [Compound 123, 4-[[6-(1-methylpyrazol-4-yl)-3-pyridyl]methyl]-N-(2-oxaspiro[3.3]heptan-6-yl)thieno[2,3-b]pyridine-6-carboxamide], the Emax is 56.2% and the EC50 was determined as 0.1 µM.

Take `Cn1cc(-c2ccc(Cc3cc(C(=O)NC4COC4)nc4sccc34)cn2)cn1` [Compound 124, 4-[[6-(1-methylpyrazol-4-yl)-3-pyridyl]methyl]-N-(oxetan-3-yl)thieno[2,3-b]pyridine-6-carboxamide]: the Emax came to 53.5% and the EC50 was 0.04 µM.

Consider `Cn1cc(-c2ccc(Cc3cc(C(=O)NC4CC(F)C4)nc4sccc34)cn2)cn1` (stereo not shown) [Compound 125, N-(3-fluorocyclobutyl)-4-[[6-(1-methylpyrazol-4-yl)-3-pyridyl]methyl]thieno[2,3-b]pyridine-6-carboxamide], for which the Emax is 58.6% and the EC50 is 0.94 µM.

Consider `Cn1cc(-c2ccc(Cc3cc(C(=O)NC4CC(F)(F)C4)nc4sccc34)cn2)cn1` [Compound 126, N-(3,3-difluorocyclobutyl)-4-[[6-(1-methylpyrazol-4-yl)-3-pyridyl]methyl]thieno[2,3-b]pyridine-6-carboxamide], for which the Emax worked out at 63.4% and the EC50 turned out to be 0.27 µM.

On to `COCCNC(=O)c1cc(Cc2ccc(-c3cnn(C)c3)nc2)c2ccsc2n1` [Compound 127, N-(2-methoxyethyl)-4-[[6-(1-methylpyrazol-4-yl)-3-pyridyl]methyl]thieno[2,3-b]pyridine-6-carboxamide], for which the maximum response (Emax) worked out at 63.8% and the EC50 is 0.27 µM.

As for `COCC(C)NC(=O)c1cc(Cc2ccc(-c3cnn(C)c3)nc2)c2ccsc2n1` (stereo not shown) [Compound 128, N-(2-methoxy-1-methyl-ethyl)-4-[[6-(1-methylpyrazol-4-yl)-3-pyridyl]methyl]thieno[2,3-b]pyridine-6-carboxamide], the Emax was found to be 60.8% and the EC50 was found to be 0.16 µM.

For the compound `Cc1nc(-c2ccc(Cc3cc(C(=O)N[C@H]4CCCC[C@@H]4O)nc4sccc34)cc2)co1` [Compound 129, N-[(1S,2S)-2-hydroxycyclohexyl]-4-[[4-(2-methyloxazol-4-yl)phenyl]methyl]thieno[2,3-b]pyridine-6-carboxamide], the Emax amounted to 63.9% and the EC50 came to 0.47 µM.

In the case of `Cc1nc(-c2ccc(Cc3cc(C(=O)N[C@H]4CCOC[C@@H]4O)nc4sccc34)cc2)co1` [Compound 130, N-[(3R,4S)-3-hydroxytetrahydropyran-4-yl]-4-[[4-(2-methyloxazol-4-yl)phenyl]methyl]thieno[2,3-b]pyridine-6-carboxamide], the Emax came out at 41.4% and the EC50 came out at 0.06 µM.

With `Cc1nc(-c2ccc(Cc3cc(C(=O)NC4CCOC(C)(C)C4)nc4sccc34)cc2)co1` (stereo not shown) [Compound 131, N-(2,2-dimethyltetrahydropyran-4-yl)-4-[[4-(2-methyloxazol-4-yl)phenyl]methyl]thieno[2,3-b]pyridine-6-carboxamide], the Emax was determined as 33.3%.

As for `Cc1nc(-c2ccc(Cc3cc(C(=O)NC4CC(C)OC(C)C4)nc4sccc34)cc2)co1` (stereo not shown) [Compound 132, N-(2,6-dimethyltetrahydropyran-4-yl)-4-[[4-(2-methyloxazol-4-yl)phenyl]methyl]thieno[2,3-b]pyridine-6-carboxamide], the Emax was determined as 58.9% and the EC50 was 1.05 µM.

Take `Cc1nc(-c2ccc(Cc3cc(C(=O)NC4CCOCC4(C)C)nc4sccc34)cc2)co1` (stereo not shown) [Compound 133, N-(3,3-dimethyltetrahydropyran-4-yl)-4-[[4-(2-methyloxazol-4-yl)phenyl]methyl]thieno[2,3-b]pyridine-6-carboxamide]: the Emax came out at 62.3% and the EC50 is 2.32 µM.

In the case of `Cc1nc(-c2ccc(Cc3cc(C(=O)NC4CCOCC4C)nc4sccc34)cc2)co1` (stereo not shown) [Compound 134, 4-[[4-(2-methyloxazol-4-yl)phenyl]methyl]-N-(3-methyltetrahydropyran-4-yl)thieno[2,3-b]pyridine-6-carboxamide], the Emax was 51.4% and the EC50 stood at 1.22 µM.

With `Cc1nc(-c2ccc(Cc3cc(C(=O)NCC4CCOCC4)nc4sccc34)cc2)co1` [Compound 135], the Emax was determined as 57.7% and the EC50 was determined as 0.54 µM.

With `Cc1nc(-c2ccc(Cc3cc(C(=O)N[C@H]4CCOC4)nc4sccc34)cc2)co1` [Compound 136, 4-[[4-(2-methyloxazol-4-yl)phenyl]methyl]-N-[(3S)-tetrahydrofuran-3-yl]thieno[2,3-b]pyridine-6-carboxamide], the Emax came out at 60.6% and the EC50 is 0.62 µM.

On to `Cc1nc(-c2ccc(Cc3cc(C(=O)N[C@@H]4CCOC4)nc4sccc34)cc2)co1` [Compound 137, 4-[[4-(2-methyloxazol-4-yl)phenyl]methyl]-N-[(3R)-tetrahydrofuran-3-yl]thieno[2,3-b]pyridine-6-carboxamide], for which the Emax was determined as 59.5% and the EC50 worked out at 1.9 µM.

Turning to `Cc1nc(-c2ccc(Cc3cc(C(=O)NCC4CCOC4)nc4sccc34)cc2)co1` (stereo not shown) [Compound 138, 4-[[4-(2-methyloxazol-4-yl)phenyl]methyl]-N-(tetrahydrofuran-3-ylmethyl)thieno[2,3-b]pyridine-6-carboxamide], the Emax was found to be 59.5% and the EC50 was 3.15 µM.

For `Cc1nc(-c2ccc(Cc3cc(C(=O)NC4CC5(COC5)C4)nc4sccc34)cc2)co1` [Compound 139, 4-[[4-(2-methyloxazol-4-yl)phenyl]methyl]-N-(2-oxaspiro[3.3]heptan-6-yl)thieno[2,3-b]pyridine-6-carboxamide], the Emax was determined as 60.5% and the EC50 worked out at 0.39 µM.

For `Cc1nc(-c2ccc(Cc3cc(C(=O)NC4(C)COC4)nc4sccc34)cc2)co1` [Compound 140, 4-[[4-(2-methyloxazol-4-yl)phenyl]methyl]-N-(3-methyloxetan-3-yl)thieno[2,3-b]pyridine-6-carboxamide], the Emax came to 59.2% and the EC50 came to 0.24 µM.

On to `Cc1nc(-c2ccc(Cc3cc(C(=O)NC4CC(F)C4)nc4sccc34)cc2)co1` (stereo not shown) [Compound 141], for which the Emax came out at 35.9% and the EC50 is over 10 µM.

As to `Cc1nc(-c2ccc(Cc3cc(C(=O)NCC4CCN4)nc4sccc34)cc2)co1` (stereo not shown) [Compound 142, N-(azetidin-2-ylmethyl)-4-[[4-(2-methyloxazol-4-yl)phenyl]methyl]thieno[2,3-b]pyridine-6-carboxamide], the Emax was 60.1% and the EC50 stood at 2.37 µM.

Values taken from US10899759B2, “Positive allosteric modulators of the muscarinic acetylcholine receptor M1” (Vanderbilt University, priority 2016, dated 2021).
